What is called inhibition is the percentage by which the read-out fell short of the control.

The values that follow come from patent publication US5013544A, “Contraceptive methods and compositions” (The Victoria University of Manchester, priority 1988, dated 1991).

One data set relates to sperm (semen). In words: Spermicidal action in isotonic aqueous sucrose: % of sperm motile 1 minute after contact (Example 2). The data set is classed as cell-based, human. How it is done:
(§1) Chlorhexidine, as the diacetate salt, and/or nonoxynol-9 (50 μl. of an appropriate aqueous dilution) was dissolved in Tyrodes T6 balanced salt solution supplemented with 4 mg./ml. of human albumin. The solution was prepared and used immediately, by being mixed with 50 μl. of fresh human semen with a sperm concentration of at least 50 million per ml, and a motility of at least 80%, and incubated at 25 degrees C. for about 1 minute.
(§2) The motility of the sperm so treated was measured by one of two methods:
(§3) (1) If the concentration of chlorhexidine caused protein precipitation, motility was estimated by phase contrast microscopy at 200× magnification in a 10 μm deep counting chamber.
(§4) (2) If the solution remained optically clear, motility was measured by laser Doppler spectroscopy. This technique involves the analysis by auto-correlation of the fraction of the scattered laser light which contains the Doppler-shifted frequencies generated by interaction between the incident laser and the sperm head.
The procedure of Example 1 was repeated, using solutions of the specified compounds (nonoxenol-9 and chlorhexidine diacetate) in an isotonic aqueous solution of sucrose, the spermicidal action of nonoxenol-9 and chlorhexidine diacetate, derived from five examinations, each being measured in duplicate. The concentrations are the final values in semen.
The values expressed are the percentages, expressed as a mean, of the sperm which are motile 1 minute after contact with the spermicide.

A further data set relates to sperm. In words: Site of spermicidal action (vagina, cervical mucus). Conditions: vagina and cervical mucus; no test described.
Data set [1] in a line: Stability of spermicidal activity of chlorhexidine / composition in solution. The data set is classed as physicochemical.
The next data set relates to human semen (sperm). In words: Inhibition of motility of human sperm, ~1 min, in Tyrodes T6 medium (Example 1). The data set is classed as cell-based. The following applies: about 1 minute, 25 degrees C., Tyrodes T6 + human albumin. How it is done:
as §1, §2, §3, §4

For the molecule `[H]/N=C(\N/C(=N/[H])NCCCCCCNC(=N)NC(=N)Nc1ccc(Cl)cc1)Nc1ccc(Cl)cc1` [Chlorhexidine, 1:6-di-(N-p-chlorophenyl-diguanido)-hexane], the “percentage of the sperm which are motile 1 minute after contact (mean)” value came out at 39.32% in the data set on sperm (semen) (Chlorhexidine 0.5 mg/ml, nonoxynol-9 0, untreated 50.37); 16.14% in the data set with sperm (semen) (Chlorhexidine 1.0 mg/ml, nonoxynol-9 0, untreated 50.37); 10.02% in the data set with sperm (semen) (Chlorhexidine 2.0 mg/ml, nonoxynol-9 0, untreated 50.37); 0% in the data set on sperm (semen) (Chlorhexidine 5.0 mg/ml, nonoxynol-9 0, untreated 50.37). Moreover, the “site of spermicidal action” value in the data set with sperm is “acts as a spermicide both in the vagina and in the cervical mucus”. The “loss of spermicidal activity” value in data set [1] (chloride ion at physiological concentrations) is “lose its spermicidal activity in less than two hours”. For the same molecule, the “tendency to lose spermicidal activity” value in data set [1] (in some circumstances and formulations, associated with certain anions) is recorded as “marked tendency to lose its spermicidal activity”. Further, the “stability of aqueous solution” value in data set [1] (isotonic aqueous sucrose solution) was “remained stable for greater than three days”. Moreover, the “% Inhibition of motility” value in the data set on human semen (sperm) (0.5 mg./ml.) is reported as “ZERO”. The inhibition at 2000 µg/mL in the data set with human semen (sperm) (Sperm, 1 min, 2 mg./ml.) was 5%.

Consider Nonoxynol-9, for which the “percentage of the sperm which are motile 1 minute after contact (mean)” value is given as 31.09% in the data set with sperm (semen) (Nonoxynol-9 0.2 mg/ml, chlorhexidine 0, untreated 50.37); 0% in the data set with sperm (semen) (Nonoxynol-9 0.4 mg/ml, chlorhexidine 0, untreated 50.37); 0% in the data set on sperm (semen) (Nonoxynol-9 0.6 mg/ml, chlorhexidine 0, untreated 50.37). Besides, in the data set with sperm, the “site of spermicidal action” value is “only spermicidal in the vagina and does not enter the cervical mucus”. In addition, the “% Inhibition of motility” value was “ZERO” with human semen (sperm) (0.5 mg./ml.) and 100% in the data set on human semen (sperm) (2 mg./ml.).
